Experiments:
MraY = MraY (Escherichia coli (strain K12), UniProt P0A6W3); experiment: MraY assay; type: biochemical; details: relative to FR-900493 (1)
C. difficile spores = experiment: Spore viability testing; type: cell-based; details: x2 MIC, 24 hours, CFU on taurocholate agar
Vero cells = experiment: Cytotoxicity MTT assay, Vero cells; type: cell-based, monkey
sheep blood = experiment: Hemolysis of sheep blood; type: cell-based; details: Ovis aries
Water solubility = type: physicochemical; details: 11 relative to 10
C. difficile = experiment: Antibacterial activity (FIG. 4), C. difficile; type: cell-based
[1] = Cytotoxicity MTT assay, L12210; type: cell-based; details: mouse, L12210 cells
Experimental: (§1) Selected molecules were tested for cytotoxicity (IC50) in cancer and healthy cells via a MTT colorimetric assay.
(§2) Each cell was cultured in recommended medium by ATCC, and the IC50 data were obtained with each cell line.

[2] = Cytotoxicity MTT assay, KB; type: cell-based; details: human, KB cells
Experimental: as §1, §2

[3] = Cytotoxicity MTT assay, LoVo; type: cell-based; details: human, LoVo cells
Experimental: as §1, §2

[4] = Cytotoxicity MTT assay, SK-OV-3; type: cell-based; details: human, SK-OV-3 cells
Experimental: as §1, §2

[5] = Cytotoxicity MTT assay, MDA-MB-435S; type: cell-based; details: human, MDA-MB-435S cells
Experimental: as §1, §2

[6] = Cytotoxicity MTT assay, AsPc-1; type: cell-based; details: human, AsPc-1 cells
Experimental: as §1, §2

[7] = Cytotoxicity MTT assay, Panc-1; type: cell-based; details: human, Panc-1 cells
Experimental: as §1, §2

[8] = Cytotoxicity MTT assay, HPAF-II; type: cell-based; details: human, HPAF-II cells
Experimental: as §1, §2

[9] = Cytotoxicity MTT assay, HCT 116; type: cell-based; details: human, HCT 116 cells
Experimental: as §1, §2

Panc-1 cells = experiment: Boyden chamber migration assay, Panc-1; type: cell-based; details: FIG. 7
AsPc-1 cells = experiment: Scratch (wound healing) assay, AsPc-1; type: cell-based; details: FIG. 9
[10] = tested on: AsPc-1 (pancreatic cancer) cells; experiment: Synergistic assay (checkerboard) on AsPc-1 cells; type: cell-based; details: for IC50 A / IC50 B (drug alone): AsPc-1 cells
Experimental: Synergistic Assay. The synergistic or antagonistic activities of 11 with other cancer drugs on AsPc-1 (pancreatic cancer) cells were assessed in vitro via micro dilution broth checkerboard technique previously reported. The FIC index was calculated according to the following equation. ΣFIC=FICA+FICB=CA/MICA+CB/MICB where MICA and MICB are MIC of drugs A and B, CA and CB are the concentrations of drugs A and B used in combination. In these interaction studies, ΣFIC of less than 0.5 represents synergistic activity.
These experiments were performed in the same manner as those of Example 8.

MDA-MB-231 cells [11] = experiment: Animal model of triple negative breast cancer (MDA-MB-231 implanted); type: in vivo; details: mice, MDA-MB-231, 10 mg/kg/day, FIG. 10
Experimental: An animal model of triple negative breast cancer was generated by implantation of MDA-MB-231 cells into mice. […] A second group of mice were treated with paclitaxel at 15 mg/kg.

[12] = tested on: patient-derived cell line (BCI-12); experiment: Animal model of Her2+ breast cancer (BCI-12 implanted); type: in vivo; details: mice
Experimental: An animal model of Her2+ breast cancer was generated by implantation of cells of a patient-derived cell line (BCI-12) into mice. Said mice were treated with compound 11, with the therapeutic monoclonal antibody transtuzumab (TzMAb), or a combination of compound 11 and transtuzumab.

MDA-MB-231 cells [13] = experiment: Expression of tumor markers in MDA-MB-231 cells; type: cell-based; details: 48 hours of exposure, FIG. 12
Source text: It should be appreciated that MDA-MB-231 is a high DPAGT1 expressing, triple negative cell line. […] Erb2 (HER2), Erb3 (HER3), and Erb4 (HER4) are elevated.

WecA = WecA (Escherichia coli (strain K12), UniProt P0AC78); experiment: WecA assay (Table 1); details: relative to FR-900493 (1)
Chain of WecA (P0AC78 whole entry, looked up, species assumed): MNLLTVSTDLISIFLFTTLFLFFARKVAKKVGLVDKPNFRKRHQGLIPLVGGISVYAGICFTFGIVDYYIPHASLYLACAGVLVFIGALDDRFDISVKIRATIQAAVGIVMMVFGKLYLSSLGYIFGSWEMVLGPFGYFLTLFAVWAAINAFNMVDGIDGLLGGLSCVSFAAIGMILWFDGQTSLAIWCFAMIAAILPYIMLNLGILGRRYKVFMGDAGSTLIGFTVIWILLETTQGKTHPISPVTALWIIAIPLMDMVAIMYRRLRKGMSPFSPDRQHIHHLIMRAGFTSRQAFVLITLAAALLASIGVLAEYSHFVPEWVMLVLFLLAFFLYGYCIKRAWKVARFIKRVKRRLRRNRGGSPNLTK

Chain of MraY (P0A6W3 whole entry, looked up, species assumed): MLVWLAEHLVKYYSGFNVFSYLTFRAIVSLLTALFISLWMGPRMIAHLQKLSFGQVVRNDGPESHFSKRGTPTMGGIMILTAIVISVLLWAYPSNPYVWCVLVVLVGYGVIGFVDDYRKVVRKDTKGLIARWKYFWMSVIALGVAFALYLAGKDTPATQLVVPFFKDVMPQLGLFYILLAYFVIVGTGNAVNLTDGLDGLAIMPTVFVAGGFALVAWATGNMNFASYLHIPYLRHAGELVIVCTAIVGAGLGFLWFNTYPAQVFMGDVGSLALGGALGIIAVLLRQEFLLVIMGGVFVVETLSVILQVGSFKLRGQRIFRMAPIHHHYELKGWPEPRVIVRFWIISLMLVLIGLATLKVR

Compound: NC[C@H]1O[C@@H](O[C@H]([C@H]2O[C@@H](n3ccc(=O)[nH]c3=O)[C@H](O)[C@@H]2O)[C@H](NCCCC(=O)NCc2ccc(N3CCC(Oc4ccc(C(F)(F)F)cc4)CC3)cc2)C(N)=O)[C@H](O)[C@@H]1O [Compound 11]
- MraY inhibitory activity, more significant than 1 (MraY): > 300 times
- Viability of C. difficile spores (C. difficile spores): caused loss of viability
- cytotoxic effects on healthy, non-cancerous Vero cells (Vero cells): little cytotoxic effects
- IC50 (sheep blood): 206 µM
- water solubility greater than 10 (Water solubility): 200 times
- antibacterial activity against C. difficile (C. difficile): displayed antibacterial activity
- IC50 [1]: > 100 µM
- IC50 [2]: 7.09 µM
- IC50 [3]: 0.22 µM
- IC50 [4]: 2.85 µM
- IC50 [5]: 7.09 µM
- IC50 [6]: 0.95 µM
- IC50 [7]: < 0.098 µM
- IC50 [8]: < 0.098 µM
- IC50 [9]: 3.54 µM
- Panc-1 migratory cells (Panc-1 cells): fewer Panc-1 migratory cells than Gemcitabine, Taxol, and Tunicamycin
- AsPc-1 cell migration, scratch assay (AsPc-1 cells): less AsPc-1 cell migration than Gemcitabine
- effect of combinations of 11 and Taxol ([10]; AsPc-1, all five combinations, FIC < 0.5): synergistic effect
- effect of combination of 11 and Gemcitabine ([10]; AsPc-1, both combinations): synergistic effect
- IC50 A / IC50 B (drug alone) ([10]; Table 5): 0.982 µM
- IC50 A / IC50 B (drug alone) ([10]; Table 6): 0.98 µM
- AsPc-1 cells dead/alive ([10]; Compound 11 0.0488281 μM + Gemcitabine 0.024414 μM): alive
- AsPc-1 cells dead/alive ([10]; Compound 11 0.0488281 μM + Gemcitabine 0.048828 μM): alive
- AsPc-1 cells dead/alive ([10]; Compound 11 0.0488281 μM + Gemcitabine 0.097656 μM): dead
- AsPc-1 cells dead/alive ([10]; Compound 11 0.0488281 μM + Gemcitabine 0.195313 μM): dead
- AsPc-1 cells dead/alive ([10]; Compound 11 0.0488281 μM + Gemcitabine 0.390625 μM): dead
- AsPc-1 cells dead/alive ([10]; Compound 11 0.0976563 μM + Gemcitabine 0.024414 μM): alive
- AsPc-1 cells dead/alive ([10]; Compound 11 0.0976563 μM + Gemcitabine 0.048828 μM): alive
- AsPc-1 cells dead/alive ([10]; Compound 11 0.0976563 μM + Gemcitabine 0.097656 μM): dead
- AsPc-1 cells dead/alive ([10]; Compound 11 0.0976563 μM + Gemcitabine 0.195313 μM): dead
- AsPc-1 cells dead/alive ([10]; Compound 11 0.0976563 μM + Gemcitabine 0.390625 μM): dead
- AsPc-1 cells dead/alive ([10]; Compound 11 0.1953125 μM + Gemcitabine 0.024414 μM): alive
- AsPc-1 cells dead/alive ([10]; Compound 11 0.1953125 μM + Gemcitabine 0.048828 μM): alive
- AsPc-1 cells dead/alive ([10]; Compound 11 0.1953125 μM + Gemcitabine 0.097656 μM): dead
- AsPc-1 cells dead/alive ([10]; Compound 11 0.1953125 μM + Gemcitabine 0.195313 μM): dead
- AsPc-1 cells dead/alive ([10]; Compound 11 0.1953125 μM + Gemcitabine 0.390625 μM): dead
- AsPc-1 cells dead/alive ([10]; Compound 11 0.390625 μM + Gemcitabine 0.024414 μM): alive
- AsPc-1 cells dead/alive ([10]; Compound 11 0.390625 μM + Gemcitabine 0.048828 μM): alive
- AsPc-1 cells dead/alive ([10]; Compound 11 0.390625 μM + Gemcitabine 0.097656 μM): dead
- AsPc-1 cells dead/alive ([10]; Compound 11 0.390625 μM + Gemcitabine 0.195313 μM): dead
- AsPc-1 cells dead/alive ([10]; Compound 11 0.390625 μM + Gemcitabine 0.390625 μM): dead
- AsPc-1 cells dead/alive ([10]; Compound 11 0.78125 μM + Gemcitabine 0.024414 μM): alive
- AsPc-1 cells dead/alive ([10]; Compound 11 0.78125 μM + Gemcitabine 0.048828 μM): alive
- AsPc-1 cells dead/alive ([10]; Compound 11 0.78125 μM + Gemcitabine 0.097656 μM): dead
- AsPc-1 cells dead/alive ([10]; Compound 11 0.78125 μM + Gemcitabine 0.195313 μM): dead
- AsPc-1 cells dead/alive ([10]; Compound 11 0.78125 μM + Gemcitabine 0.390625 μM): dead
- effect compared with paclitaxel (15 mg/kg) (MDA-MB-231 cells [11]): at least equivalent to palctitaxel
- effect compared with transtuzumab ([12]; BCI-12, FIG. 11): at least equivalent to transtuzumab
- effect of combination of compound 11 and transtuzumab ([12]; BCI-12, about days 20 to 30 of treatment): Improved effects
- expression of DPAGT1 (RPKM Expression Value) (MDA-MB-231 cells [13]): sharply reduced
- expression of EGFR (HER1) (MDA-MB-231 cells [13]): sharply reduced
- expression of Erb2 (HER2) (MDA-MB-231 cells [13]): elevated
- expression of Erb3 (HER3) (MDA-MB-231 cells [13]): elevated
- expression of Erb4 (HER4) (MDA-MB-231 cells [13]): elevated
- WecA inhibitory activity, more significant than 1 (WecA): about 15 fold

— US20250092081A1, “USE OF GLYCOSYLTRASNFERASE INHIBITORS FOR TREATING CANCER” (CALIFORNIA INSTITUTE OF TECHNOLOGY, priority 2020, published 2025)
